Reference: ChEMBL document CHEMBL1201862, “PubChem BioAssay data set” (2004)
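These data come from cells grown in 96-well plates and exposed to compound for 48 hours at five concentrations. At the GI50, growth is halved.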 Active and inactive are the calls of the source. Cut-off read from the data, not from the text of the source: active = GI50 up to about 1.1 µM and inactive = higher.

Assays:
Assay in all cases: NCI-60 cell line screen, 48 h
786-0 = system: 786-0
A498 = system: A498
A549 = system: A549
ACHN = system: ACHN
BT-549 = system: BT-549
CAKI-1 = system: CAKI-1
CCRF-CEM = system: CCRF-CEM
COLO 205 = system: COLO 205
DLD-1 = system: DLD-1
DMS-114 = system: DMS-114
DMS-273 = system: DMS-273
DU-145 = system: DU-145
EKVX = system: EKVX
HCC 2998 = system: HCC 2998
HCT-116 = system: HCT-116
HCT-15 = system: HCT-15
HL-60 = system: HL-60
HOP-18 = system: HOP-18
HOP-62 = system: HOP-62
HOP-92 = system: HOP-92
HT-29 = system: HT-29
Hs-578T = system: Hs-578T
IGROV-1 = system: IGROV-1
K562 = system: K562
KM-20L2 = system: KM-20L2
KM12 = system: KM12
LOX IMVI = system: LOX IMVI
LXFL 529 = system: LXFL 529
M14 = system: M14
M19-MEL = system: M19-MEL
MCF7 = system: MCF7
MDA-MB-231 = system: MDA-MB-231
MDA-MB-435 = system: MDA-MB-435
MDA-N = system: MDA-N
MOLT-4 = system: MOLT-4
Malme-3M = system: Malme-3M
NCI-H226 = system: NCI-H226
NCI-H23 = system: NCI-H23
NCI-H460 = system: NCI-H460
NCI-H522 = system: NCI-H522
NCI/ADR-RES = system: NCI/ADR-RES
OVCAR-3 = system: OVCAR-3
OVCAR-4 = system: OVCAR-4
OVCAR-5 = system: OVCAR-5
OVCAR-8 = system: OVCAR-8
PC-3 = system: PC-3
RPMI-8226 = system: RPMI-8226
RXF 393 = system: RXF 393
RXF 631 = system: RXF 631
SF-268 = system: SF-268
SF-295 = system: SF-295
SF-539 = system: SF-539
SK-MEL-28 = system: SK-MEL-28
SK-MEL-2 = system: SK-MEL-2
SK-MEL-5 = system: SK-MEL-5
SK-OV-3 = system: SK-OV-3
SN12C = system: SN12C
SNB-19 = system: SNB-19
SNB-75 = system: SNB-75
SNB-78 = system: SNB-78
SR = system: SR
SW-620 = system: SW-620
TK-10 = system: TK-10
U-251 = system: U-251
UACC-257 = system: UACC-257
UACC-62 = system: UACC-62
UO-31 = system: UO-31
XF498 = system: XF498

With `CCCC(O)[C@@]1(CC)CC(C)C(O)(C2(C)C[C@H](C)[C@@H](C(CC)C(=O)C(C)[C@@H](O)[C@H](C)C3OC(O)(C(CC)C(=O)O)[C@@H](C)C(O)C3CC)O2)O1` (stereo partly drawn) the GI50 (786-0) was 0.414 µM (active), the GI50 (A498) was 0.412 µM (active) and the GI50 (A549) was 0.123 µM (active). For the same compound, the GI50 (ACHN) was 0.521 µM (active), the GI50 (BT-549) was 0.0512 µM (active) and the GI50 (CAKI-1) was 0.486 µM (active). For the same compound, the GI50 (CCRF-CEM) was 0.0324 µM (active), the GI50 (COLO 205) was 0.123 µM (active) and the GI50 (DLD-1) was 0.841 µM (active). The GI50 (DMS-114) was 0.0279 µM (active), the GI50 (DMS-273) was 0.29 µM (active) and the GI50 (DU-145) was 0.0885 µM (active). For the same compound, the GI50 (EKVX) was 0.395 µM (active), the GI50 (HCC 2998) was 0.0897 µM (active) and the GI50 (HCT-116) was 0.187 µM (active). The GI50 (HCT-15) was 1.16 µM, the GI50 (HL-60) was 0.0228 µM (active) and the GI50 (HOP-18) was 8.59 µM (inactive). For the same compound, the GI50 (HOP-62) was 0.369 µM (active), the GI50 (HOP-92) was 0.3 µM (active) and the GI50 (HT-29) was 0.557 µM (active). For the same compound, the GI50 (Hs-578T) was 0.267 µM (active), the GI50 (IGROV-1) was 1.24 µM (inactive) and the GI50 (K562) was 0.0955 µM (active). The GI50 (KM-20L2) was 0.276 µM (active), the GI50 (KM12) was 0.451 µM (active) and the GI50 (LOX IMVI) was 0.19 µM (active). For the same compound, the GI50 (LXFL 529) was 0.594 µM (active), the GI50 (M14) was 0.557 µM (active) and the GI50 (M19-MEL) was 0.643 µM (active). For the same compound, the GI50 (MCF7) was 0.461 µM (active), the GI50 (MDA-MB-231) was 0.492 µM (active) and the GI50 (MDA-MB-435) was 0.151 µM (active). For the same compound, the GI50 (MDA-N) was 0.414 µM (active), the GI50 (MOLT-4) was 0.449 µM (active) and the GI50 (Malme-3M) was 0.0982 µM (active). For the same compound, the GI50 (NCI-H226) was 1.1 µM (active), the GI50 (NCI-H23) was 0.129 µM (active) and the GI50 (NCI-H460) was 0.191 µM (active). For the same compound, the GI50 (NCI-H522) was 0.0211 µM (active), the GI50 (NCI/ADR-RES) was 0.0792 µM (active) and the GI50 (OVCAR-3) was 0.0733 µM (active). The GI50 (OVCAR-4) was 0.594 µM (active), the GI50 (OVCAR-5) was 1.51 µM (inactive) and the GI50 (OVCAR-8) was 0.444 µM (active). The GI50 (PC-3) was 0.0723 µM (active), the GI50 (RPMI-8226) was 0.0989 µM (active) and the GI50 (RXF 393) was 0.0863 µM (active). The GI50 (RXF 631) was < 0.0333 µM (active), the GI50 (SF-268) was 0.284 µM (active) and the GI50 (SF-295) was 0.753 µM (active). The GI50 (SF-539) was 0.056 µM (active), the GI50 (SK-MEL-28) was 0.49 µM (active) and the GI50 (SK-MEL-2) was 0.531 µM (active). For the same compound, the GI50 (SK-MEL-5) was 0.219 µM (active), the GI50 (SK-OV-3) was 2.15 µM (inactive) and the GI50 (SN12C) was 0.12 µM (active). For the same compound, the GI50 (SNB-19) was 0.279 µM (active), the GI50 (SNB-75) was 0.0611 µM (active) and the GI50 (SNB-78) was 2.76 µM (inactive). For the same compound, the GI50 (SR) was < 0.01 µM (active), the GI50 (SW-620) was 0.776 µM (active) and the GI50 (TK-10) was 0.527 µM (active). The GI50 (U-251) was 0.184 µM (active), the GI50 (UACC-257) was 0.138 µM (active) and the GI50 (UACC-62) was 0.923 µM (active). The GI50 (UO-31) was 1.01 µM (active) and the GI50 (XF498) was 1.19 µM (inactive).
